# Laboratory results published in patent US12234230B2, “Substituted benzyl-triazole compounds for Cbl-b inhibition, and further uses thereof” (Nurix Therapeutics, Inc., priority 2019, dated 2025).
# Read-outs that look alike come from different tables or passages of the source.
# Columns and labels:
# Cbl-b = Cbl-b (Homo sapiens (Human), UniProt Q13191); test: Cbl-b displacement assay (Cbl-b inhibition assay), Biological Example 1; assay type: binding
# Experimental: The ability of candidate compounds to displace a known inhibitor and thereby inhibit Cbl-b activity was measured by monitoring the interaction of Cbl-b with a fluorophore-labeled probe in the presence of the candidate compound.
# Following the one hour incubation, the plates were read for TR-FRET signal at 520/620 nm using an Envision plate reader (Perkin Elmer).
# [1] = tested on: primary human total T-cells; test: Primary human total T-cell activation (IL-2 secretion, CD25 surface staining), Biological Example 2; conditions: fold change over baseline; for IL-2 secretion CD3/CD28 0.3 μM / CD25 staining CD3/CD28 0.3 μM: 0.3 μM inhibitor; for IL-2 secretion CD3/CD28 0.3 μM / IL-2 secretion CD3/CD28 1 μM / CD25 staining CD3/CD28 0.3 μM / CD25 staining CD3/CD28 1 μM: anti-CD3 and anti-CD28 co-stimulation; for IL-2 secretion CD3/CD28 1 μM / CD25 staining CD3 1 μM / IL-2 secretion CD3 1 μM / CD25 staining CD3/CD28 1 μM: 1 μM inhibitor; for CD25 staining CD3 1 μM / IL-2 secretion CD3 1 μM / CD25 staining CD3 3 μM / IL-2 secretion CD3 3 μM: anti-CD3 stimulation alone; for CD25 staining CD3 3 μM / IL-2 secretion CD3 3 μM: 3 μM inhibitor
# [2] = 0.125 nM Cbl-b final concentration (Low), read-out: Cbl-b activity IC50 (Low)
# [3] = read-out: IC50 values in the Cbl-b inhibition assay of Biological Example 1
# Cbl-b, sequence (Q13191 36-427): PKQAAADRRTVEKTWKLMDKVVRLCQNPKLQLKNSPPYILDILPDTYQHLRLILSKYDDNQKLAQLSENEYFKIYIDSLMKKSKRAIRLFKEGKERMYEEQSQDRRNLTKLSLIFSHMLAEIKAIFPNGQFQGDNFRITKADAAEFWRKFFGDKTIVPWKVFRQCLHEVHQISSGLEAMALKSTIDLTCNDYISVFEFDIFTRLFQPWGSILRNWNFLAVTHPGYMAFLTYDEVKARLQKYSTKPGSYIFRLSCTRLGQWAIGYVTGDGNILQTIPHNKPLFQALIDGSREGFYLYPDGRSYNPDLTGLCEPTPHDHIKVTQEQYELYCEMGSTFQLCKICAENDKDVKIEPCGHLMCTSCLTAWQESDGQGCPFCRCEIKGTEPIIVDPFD
smiles,measurement,setting,value
"C[C@H]1CCCN(Cc2cc3c(c(C(F)(F)F)c2)CN(c2cccc([C@]4(c5nncn5C)C[C@@H](O)C4)c2)C3=O)C1 [Compound 32, 2-(3-((1s,3R)-3-hydroxy-1-(4-methyl-4H-1,2,4-triazol-3-yl)cyclobutyl)phenyl)-6-(((S)-3-methylpiperidin-1-yl)methyl)-4-(trifluoromethyl)isoindolin-1-one]",IC50,Cbl-b; [2],0.005 to 0.02 µM
same,IL-2 secretion CD3/CD28 0.3 μM,[1],B (B indicates 20-35 fold)
same,IL-2 secretion CD3/CD28 1 μM,[1],A (A indicates >35 fold)
same,CD25 staining CD3 1 μM,[1],A (A indicates >2.5 fold)
same,IL-2 secretion CD3 1 μM,[1],A (A indicates >1.1 fold)
same,CD25 staining CD3 3 μM,[1],A (A indicates >2.5 fold)
same,IL-2 secretion CD3 3 μM,[1],A (A indicates >1.1 fold)
"C[C@H]1CCCN(Cc2cc3c(c(C(F)(F)F)c2)CN(c2cccc([C@]4(c5nncn5C)C[C@H](O)C4)c2)C3=O)C1 [Compound 35, 2-(3-((1r,3S)-3-hydroxy-1-(4-methyl-4H-1,2,4-triazol-3-yl)cyclobutyl)phenyl)-6-(((S)-3-methylpiperidin-1-yl)methyl)-4-(trifluoromethyl)isoindolin-1-one]",IC50,Cbl-b; [2],< 0.005 µM
same,CD25 staining CD3/CD28 0.3 μM,[1],B (B indicates 1.24-1.39 fold)
same,IL-2 secretion CD3/CD28 0.3 μM,[1],B (B indicates 20-35 fold)
same,CD25 staining CD3/CD28 1 μM,[1],B (B indicates 1.24-1.39 fold)
same,IL-2 secretion CD3/CD28 1 μM,[1],B (B indicates 20-35 fold)
same,CD25 staining CD3 1 μM,[1],A (A indicates >2.5 fold)
same,IL-2 secretion CD3 1 μM,[1],B (B indicates 0.70-1.1 fold)
same,CD25 staining CD3 3 μM,[1],A (A indicates >2.5 fold)
same,IL-2 secretion CD3 3 μM,[1],B (B indicates 0.70-1.1 fold)
"Cn1cnnc1C1(c2cccc(N3Cc4c(cccc4C(F)(F)F)C3=O)c2)CCCC1 [Compound 11, 2-(3-(1-(4-methyl-4H-1,2,4-triazol-3-yl)cyclopentyl)phenyl)-4-(trifluoromethyl)isoindolin-1-one]",IC50,"Cbl-b; 0.5 nM Cbl-b final concentration (High), read-out: Cbl-b activity IC50 (High)",> 0.1 µM
same,IL-2 secretion CD3/CD28 0.3 μM,[1],C (C indicates <20 fold)
same,IL-2 secretion CD3/CD28 1 μM,[1],C (C indicates <20 fold)
same,CD25 staining CD3 1 μM,[1],C (C indicates <1.5 fold)
same,CD25 staining CD3 3 μM,[1],C (C indicates <1.5 fold)
"Cc1cc(C(=O)Nc2cccc([C@]3(c4nncn4C)C[C@@H](C)C3)c2)nc(C2CC2)n1 [Compound 21, 2-cyclopropyl-6-methyl-N-{3-[(1r,3s)-3-methyl-1-(4-methyl-1,2,4-triazol-3-yl)cyclobutyl]phenyl}pyrimidine-4-carboxamide]",IC50,Cbl-b; [2],0.02 to 0.1 µM
same,CD25 staining CD3/CD28 0.3 μM,[1],B (B indicates 1.24-1.39 fold)
same,IL-2 secretion CD3/CD28 0.3 μM,[1],C (C indicates <20 fold)
same,CD25 staining CD3/CD28 1 μM,[1],B (B indicates 1.24-1.39 fold)
same,IL-2 secretion CD3/CD28 1 μM,[1],C (C indicates <20 fold)
same,CD25 staining CD3 1 μM,[1],B (B indicates 1.5-2.5 fold)
same,IL-2 secretion CD3 1 μM,[1],B (B indicates 0.70-1.1 fold)
same,CD25 staining CD3 3 μM,[1],B (B indicates 1.5-2.5 fold)
same,IL-2 secretion CD3 3 μM,[1],B (B indicates 0.70-1.1 fold)
"C[C@H]1CCCN(Cc2cc3c(c(C(F)(F)F)c2)CN(c2cccc([C@]4(c5nncn5C)C[C@@H](CC#N)C4)c2)C3=O)C1 [Compound 48, 2-((1R,3s)-3-(4-methyl-4H-1,2,4-triazol-3-yl)-3-(3-(6-(((S)-3-methylpiperidin-1-yl)methyl)-1-oxo-4-(trifluoromethyl)isoindolin-2-yl)phenyl)cyclobutyl)acetonitrile]",IC50,Cbl-b; [2],< 0.005 µM
same,IL-2 secretion CD3/CD28 0.3 μM,[1],B (B indicates 20-35 fold)
same,IL-2 secretion CD3/CD28 1 μM,[1],A (A indicates >35 fold)
same,CD25 staining CD3 1 μM,[1],A (A indicates >2.5 fold)
same,IL-2 secretion CD3 1 μM,[1],A (A indicates >1.1 fold)
same,CD25 staining CD3 3 μM,[1],B (B indicates 1.5-2.5 fold)
same,IL-2 secretion CD3 3 μM,[1],B (B indicates 0.70-1.1 fold)
"C[C@@H]1CN(Cc2cc3c(c(C(F)(F)F)c2)CN(c2cccc([C@]4(c5nncn5C)C[C@@H](C)C4)c2)C3=O)CCC1(F)F [Compound 19, 6-(((R)-4,4-difluoro-3-methylpiperidin-1-yl)methyl)-2-(3-((1s,3S)-3-methyl-1-(4-methyl-4H-1,2,4-triazol-3-yl)cyclobutyl)phenyl)-4-(trifluoromethyl)isoindolin-1-one]",IC50,Cbl-b; [2],0.02 to 0.1 µM
same,IL-2 secretion CD3/CD28 0.3 μM,[1],C (C indicates <20 fold)
same,IL-2 secretion CD3/CD28 1 μM,[1],C (C indicates <20 fold)
same,CD25 staining CD3 1 μM,[1],C (C indicates <1.5 fold)
same,IL-2 secretion CD3 1 μM,[1],C (C indicates <0.70 fold)
same,CD25 staining CD3 3 μM,[1],C (C indicates <1.5 fold)
same,IL-2 secretion CD3 3 μM,[1],C (C indicates <0.70 fold)
"CC(c1cc2c(c(C(F)(F)F)c1)CN(c1cccc([C@@H](c3nncn3C)C3CCC3)c1)C2=O)N1CCC[C@H](C)C1 (stereo partly drawn) [Compound 16, 2-(3-((S)-cyclobutyl(4-methyl-4H-1,2,4-triazol-3-yl)methyl)phenyl)-6-(1-((S)-3-methylpiperidin-1-yl)ethyl)-4-(trifluoromethyl)isoindolin-1-one]",IC50,Cbl-b; [2],0.02 to 0.1 µM
same,IC50,Cbl-b; [3],0.02 to 0.1 µM
same,IL-2 secretion CD3/CD28 0.3 μM,[1],C (C indicates <20 fold)
same,IL-2 secretion CD3/CD28 1 μM,[1],B (B indicates 20-35 fold)
same,CD25 staining CD3 1 μM,[1],A (A indicates >2.5 fold)
same,IL-2 secretion CD3 1 μM,[1],B (B indicates 0.70-1.1 fold)
same,CD25 staining CD3 3 μM,[1],A (A indicates >2.5 fold)
same,IL-2 secretion CD3 3 μM,[1],B (B indicates 0.70-1.1 fold)
"C[C@@H]1CN(Cc2cc3c(c(C(F)(F)F)c2)CN(c2cccc(C4(c5nncn5C)CC5(CC5)C4)c2)C3=O)CCO1 [Compound 43, (R)-2-(3-(5-(4-methyl-4H-1,2,4-triazol-3-yl)spiro[2.3]hexan-5-yl)phenyl)-6-((2-methylmorpholino)methyl)-4-(trifluoromethyl)isoindolin-1-one]",IC50,Cbl-b; [2],< 0.005 µM
same,CD25 staining CD3/CD28 0.3 μM,[1],B (B indicates 1.24-1.39 fold)
same,IL-2 secretion CD3/CD28 0.3 μM,[1],B (B indicates 20-35 fold)
same,CD25 staining CD3/CD28 1 μM,[1],B (B indicates 1.24-1.39 fold)
same,IL-2 secretion CD3/CD28 1 μM,[1],A (A indicates >35 fold)
same,CD25 staining CD3 1 μM,[1],A (A indicates >2.5 fold)
same,IL-2 secretion CD3 1 μM,[1],A (A indicates >1.1 fold)
same,CD25 staining CD3 3 μM,[1],A (A indicates >2.5 fold)
same,IL-2 secretion CD3 3 μM,[1],A (A indicates >1.1 fold)
"C[C@@H]1CN(Cc2cc3c(c(C4CC4)n2)CN(c2cccc([C@@H](c4nncn4C)C4CCC4)c2)C3=O)CCC1(F)F [Compound 5, 2-(3-((S)-cyclobutyl(4-methyl-4H-1,2,4-triazol-3-yl)methyl)phenyl)-4-cyclopropyl-6-(((R)-4,4-difluoro-3-methylpiperidin-1-yl)methyl)-2,3-dihydro-1H-pyrrolo[3,4-c]pyridin-1-one]",IC50,Cbl-b; [2],0.02 to 0.1 µM
same,IC50,Cbl-b; [3],0.02 to 0.1 µM
same,CD25 staining CD3/CD28 0.3 μM,[1],B (B indicates 1.24-1.39 fold)
same,IL-2 secretion CD3/CD28 0.3 μM,[1],C (C indicates <20 fold)
same,CD25 staining CD3/CD28 1 μM,[1],B (B indicates 1.24-1.39 fold)
same,IL-2 secretion CD3/CD28 1 μM,[1],C (C indicates <20 fold)
same,CD25 staining CD3 1 μM,[1],C (C indicates <1.5 fold)
same,IL-2 secretion CD3 1 μM,[1],C (C indicates <0.70 fold)
same,CD25 staining CD3 3 μM,[1],C (C indicates <1.5 fold)
same,IL-2 secretion CD3 3 μM,[1],C (C indicates <0.70 fold)
"C[C@@H]1CN(Cc2cc3c(c(C4CC4)n2)CN(c2cccc([C@]4(c5nncn5C)C[C@@H](C)C4)c2)C3=O)CCO1 [Compound 29, 4-cyclopropyl-2-(3-((1s,3S)-3-methyl-1-(4-methyl-4H-1,2,4-triazol-3-yl)cyclobutyl)phenyl)-6-(((R)-2-methylmorpholino)methyl)-2,3-dihydro-1H-pyrrolo[3,4-c]pyridin-1-one]",IC50,Cbl-b; [2],0.005 to 0.02 µM
same,CD25 staining CD3/CD28 0.3 μM,[1],B (B indicates 1.24-1.39 fold)
same,IL-2 secretion CD3/CD28 0.3 μM,[1],C (C indicates <20 fold)
same,CD25 staining CD3/CD28 1 μM,[1],B (B indicates 1.24-1.39 fold)
same,IL-2 secretion CD3/CD28 1 μM,[1],B (B indicates 20-35 fold)
same,CD25 staining CD3 1 μM,[1],A (A indicates >2.5 fold)
same,IL-2 secretion CD3 1 μM,[1],A (A indicates >1.1 fold)
same,CD25 staining CD3 3 μM,[1],B (B indicates 1.5-2.5 fold)
same,IL-2 secretion CD3 3 μM,[1],B (B indicates 0.70-1.1 fold)
"CO[C@H]1C[C@](c2cccc(N3Cc4c(cc(CN5CCC[C@H](C)C5)cc4C(F)(F)F)C3=O)c2)(c2nncn2C)C1 [Compound 37, 2-(3-((1r,3S)-3-methoxy-1-(4-methyl-4H-1,2,4-triazol-3-yl)cyclobutyl)phenyl)-6-(((S)-3-methylpiperidin-1-yl)methyl)-4-(trifluoromethyl)isoindolin-1-one]",IC50,Cbl-b; [2],< 0.005 µM
same,CD25 staining CD3/CD28 0.3 μM,[1],B (B indicates 1.24-1.39 fold)
same,IL-2 secretion CD3/CD28 0.3 μM,[1],B (B indicates 20-35 fold)
same,IL-2 secretion CD3/CD28 1 μM,[1],B (B indicates 20-35 fold)
same,CD25 staining CD3 1 μM,[1],A (A indicates >2.5 fold)
same,IL-2 secretion CD3 1 μM,[1],A (A indicates >1.1 fold)
same,CD25 staining CD3 3 μM,[1],A (A indicates >2.5 fold)
same,IL-2 secretion CD3 3 μM,[1],B (B indicates 0.70-1.1 fold)
